Assay results from the CheMixHub ionic liquid set.
± gives the uncertainty stated by the source.

Test: xn = mol fraction of the nth substance listed

CCCC[n+]1ccn(C)c1.COP(=O)([O-])OC + CCO
viscosity [mPa·s], 101 kPa
Details | 293.15 K | 298.15 K | 308.15 K | 313.15 K | 318.15 K | 323.15 K | 328.15 K | 333.15 K
x2 = 0.201 | – | – | 155.7 ± 6.5 | – | – | – | – | –
x2 = 0.399 | 150.9 ± 6.7 | 114.4 ± 3.6 | – | 55.65 ± 0.58 | 45.2 ± 0.56 | 37.08 ± 0.44 | 30.89 ± 0.36 | 25.94 ± 0.26
x2 = 0.8 | – | – | 5.933 ± 0.068 | 5.272 ± 0.061 | – | 4.227 ± 0.049 | 3.811 ± 0.045 | –

CCCC[n+]1ccn(C)c1.[Cl-] + CCO
101 kPa
Details | electrical conductivity [S/m] | viscosity [mPa·s]
293.15 K, x2 = 0.9501 | – | 1.78 ± 0.39
298.15 K, x2 = 0.7003 | 1.07 ± 0.02 | 10.1 ± 1.6
298.15 K, x2 = 0.8002 | 1.45 ± 0.03 | 4.59 ± 0.81
303.15 K, x2 = 0.4991 | – | 49.8 ± 7.6
303.15 K, x2 = 0.6011 | – | 20.7 ± 3.2
303.15 K, x2 = 0.9501 | – | 1.47 ± 0.34

CCOP(=O)([O-])OCC.CC[N+]1(C)CCOCC1 + CCO
viscosity [mPa·s], 100 kPa
Details | 293.15 K | 298.15 K | 303.15 K | 308.15 K | 313.15 K | 318.15 K | 323.15 K | 328.15 K | 333.15 K | 338.15 K
x1 = 0.0996 | 4.62 ± 0.28 | 4.1 ± 0.25 | 3.75 ± 0.23 | 3.43 ± 0.21 | 3.13 ± 0.19 | 2.91 ± 0.18 | 2.76 ± 0.17 | 2.58 ± 0.16 | 2.4 ± 0.15 | 2.24 ± 0.14
x1 = 0.2018 | 12.84 ± 0.78 | 11.11 ± 0.67 | 9.79 ± 0.59 | 8.75 ± 0.53 | 7.93 ± 0.48 | 7.21 ± 0.44 | 6.69 ± 0.4 | 6.18 ± 0.37 | 5.76 ± 0.35 | 5.54 ± 0.34
x1 = 0.3003 | 36.7 ± 2.2 | 29.6 ± 1.8 | 24.7 ± 1.5 | 20.8 ± 1.3 | 18.1 ± 1.1 | 15.82 ± 0.96 | 14.33 ± 0.87 | 13.01 ± 0.79 | 11.79 ± 0.72 | 10.78 ± 0.65
x1 = 0.4018 | 97.7 ± 6.1 | 75.1 ± 4.6 | 59 ± 3.6 | 47.6 ± 2.9 | 38.2 ± 2.3 | 31.8 ± 1.9 | 27.3 ± 1.7 | 23.5 ± 1.4 | 21.1 ± 1.3 | 18.7 ± 1.1
x1 = 0.4998 | 257 ± 18 | 183 ± 12 | 136.7 ± 8.8 | 102.9 ± 6.5 | 78.9 ± 4.9 | 61.3 ± 3.8 | 49.2 ± 3 | 40.1 ± 2.5 | 33.3 ± 2.1 | 29 ± 1.8
x1 = 0.6009 | 625 ± 49 | 419 ± 31 | 291 ± 20 | 209 ± 14 | 155 ± 10 | 116.8 ± 7.5 | 90 ± 5.7 | 68.9 ± 4.3 | 54.9 ± 3.4 | 44.7 ± 2.8
x1 = 0.7005 | 1447 ± 130 | 938 ± 78 | 631 ± 49 | 424 ± 31 | 298 ± 21 | 213 ± 15 | 158 ± 11 | 120.4 ± 7.8 | 91.7 ± 5.8 | 72 ± 4.5
x1 = 0.7996 | 3386 ± 340 | 2221 ± 210 | 1448 ± 130 | 895 ± 74 | 582 ± 45 | 409 ± 30 | 282 ± 20 | 205 ± 14 | 155 ± 10 | 114.1 ± 7.4
x1 = 0.901 | 6136 ± 670 | 3670 ± 370 | 2214 ± 210 | 1372 ± 120 | 909 ± 76 | 604 ± 48 | 418 ± 32 | 297 ± 21 | 215 ± 15 | 160 ± 11
x1 = 1 | 12100 ± 1500 | 6680 ± 740 | 3786 ± 390 | 2325 ± 220 | 1466 ± 130 | 942 ± 80 | 634 ± 51 | 443 ± 34 | 312 ± 23 | 226 ± 16

CCOP(=O)([O-])OCC.CC[n+]1ccn(C)c1 + CCO
100 kPa
Details | viscosity [mPa·s]
293.15 K, x1 = 0.7003 | 178 ± 12
293.15 K, x1 = 0.8985 | 379 ± 27
293.15 K, x1 = 1 | 566 ± 43
298.15 K, x1 = 0.4007 | 29.8 ± 1.8
298.15 K, x1 = 0.7003 | 133.2 ± 8.5
303.15 K, x1 = 0.4007 | 24.8 ± 1.5
303.15 K, x1 = 0.8 | 139.2 ± 8.9
303.15 K, x1 = 0.8985 | 197 ± 13
308.15 K, x1 = 0.7003 | 79.6 ± 4.9
313.15 K, x1 = 1 | 155 ± 10
318.15 K, x1 = 0.8985 | 86.8 ± 5.4
323.15 K, x1 = 0.7003 | 41.1 ± 2.5
328.15 K, x1 = 0.1002 | 2.16 ± 0.13
328.15 K, x1 = 0.1992 | 4.29 ± 0.26
328.15 K, x1 = 0.5993 | 24.4 ± 1.5
333.15 K, x1 = 0.4007 | 10.87 ± 0.66
338.15 K, x1 = 0.7003 | 23.7 ± 1.4

CCCC[N+]1(C)CCCC1.O=S(=O)([N-]S(=O)(=O)C(F)(F)F)C(F)(F)F + CCOC(=O)OCC
100 kPa
Details | electrical conductivity [S/m] | viscosity [mPa·s]
293.15 K, x1 = 0.1001 | 0.343 ± 0.011 | 1.84 ± 0.06
293.15 K, x1 = 0.2 | 0.526 ± 0.016 | 3.84 ± 0.12
293.15 K, x1 = 0.4998 | 0.42 ± 0.013 | 18.14 ± 0.56
293.15 K, x1 = 0.8934 | 0.23 ± 0.007 | 72.5 ± 2.2
303.15 K, x1 = 0.2 | 0.648 ± 0.02 | 3.18 ± 0.1
303.15 K, x1 = 0.25 | 0.731 ± 0.022 | –
308.15 K, x1 = 0.4998 | 0.705 ± 0.021 | 11.73 ± 0.36
308.15 K, x1 = 0.8934 | 0.454 ± 0.014 | 38.8 ± 1.2
313.15 K, x1 = 0.1001 | 0.465 ± 0.015 | 1.22 ± 0.04
313.15 K, x1 = 0.25 | 0.9 ± 0.027 | –
323.15 K, x1 = 0.1001 | 0.539 ± 0.017 | 1 ± 0.03
323.15 K, x1 = 0.8006 | 0.793 ± 0.024 | 18.67 ± 0.57

CCCCCCCCn1cc[n+](C)c1.F[B-](F)(F)F + CCOC(C)=O
298.15 K, 101 kPa
Details | viscosity [mPa·s]
x2 = 0.204 | 115.5 ± 4.4
x2 = 0.3986 | 41.35 ± 0.54
x2 = 0.4461 | 31.64 ± 0.41
x2 = 0.5984 | 12.72 ± 0.17
x2 = 0.624 | 10.93 ± 0.14
x2 = 0.8017 | 3.1 ± 0.05
x2 = 0.953 | 0.74 ± 0.01

CCCC[n+]1ccn(C)c1.O=S(=O)([O-])C(F)(F)F + CCOC(C)=O
100 kPa
Details | viscosity [mPa·s]
298.15 K, x1 = 0.6095 | 28.3 ± 5.7
298.15 K, x1 = 0.8932 | 55 ± 11
303.15 K, x1 = 0.3978 | 13.4 ± 2.7
303.15 K, x1 = 1 | 67 ± 13
313.15 K, x1 = 0.0991 | 0.84 ± 0.17
313.15 K, x1 = 1 | 43.7 ± 8.8
318.15 K, x1 = 0.1916 | 2.57 ± 0.52
318.15 K, x1 = 1 | 36.3 ± 7.3
323.15 K, x1 = 0.7987 | 18.2 ± 3.7
323.15 K, x1 = 0.8932 | 22.4 ± 4.5

CC[N+](C)(CC)CCOC.O=S(=O)([N-]S(=O)(=O)C(F)(F)F)C(F)(F)F + CC[N+](C)(CC)CCOC.F[B-](F)(F)F
Details | electrical conductivity [S/m]
298.15 K, 100 kPa, x1 = 1 | 0.311 ± 0.019
